Patent publication US20260216116A1, “QUATERNARY AMMONIUM COMPOUNDS (QACS) AND PROCESS FOR PREPARATION THEREOF” (priority 2023, published 2026)

Assay: Dissociation of 1 carboxy N—N—N trimethylmethanaminium benzoate in buffer solutions
Format: physicochemical
Experimental: Sample Preparation: 750 mg sample was dissolved in 250 mL of respective buffer solution and kept in orbital shaker at 37° C. for 30 minutes, 1 hour and 2 hours in separate flask. […]

[1] = pH 1.2 (0.1N HCl), 1 Hours, 37° C.
[2] = pH 1.2 (0.1N HCl), 2 Hours, 37° C.
[3] = pH 1.2 (0.1N HCl), 30 Minutes, 37° C.
[4] = pH 1.2 (0.1N HCl), Initial, 750 mg in 250 mL, 37° C.
[5] = pH 6.8 (Phosphate Buffer), 1 Hours, 37° C.
[6] = pH 6.8 (Phosphate Buffer), 2 Hours, 37° C.
[7] = pH 6.8 (Phosphate Buffer), 30 Minutes, 37° C.
[8] = pH 6.8 (Phosphate Buffer), Initial
[9] = pH 6.8 (Phosphate Buffer), Initial, 750 mg in 250 mL, 37° C.

In the case of `C[N+](C)(C)CC(=O)O.O=C([O-])c1ccccc1` [1-carboxy-N—N—N-trimethylmethanaminium benzoate], the Dissociation (1.2 pH) was “completely dissociated”, the Dissociation (6.8 pH) was “completely dissociated” and the “Concentration in %: 1 carboxy N-N-N trimethylmethanaminium, %” value (Control) was 70%. For the same molecule, the “Concentration in %: Benzoic acid, %” value (Control) was 36%, the “%, Dissociation of 1 carboxy N-N-N trimethylmethanaminium” value [1] was 100% and the “%, Dissociation of Benzoic acid” value [1] was 115%. For the same molecule, the “Concentration in %: 1 carboxy N-N-N trimethylmethanaminium, %” value [1] was 69%, the “Concentration in %: Benzoic acid, %” value [1] was 41% and the “%, Dissociation of 1 carboxy N-N-N trimethylmethanaminium” value [2] was 100%. For the same molecule, the “%, Dissociation of Benzoic acid” value [2] was 114%, the “Concentration in %: 1 carboxy N-N-N trimethylmethanaminium, %” value [2] was 70% and the “Concentration in %: Benzoic acid, %” value [2] was 41%. For the same molecule, the “%, Dissociation of 1 carboxy N-N-N trimethylmethanaminium” value [3] was 98%, the “%, Dissociation of Benzoic acid” value [3] was 115% and the “Concentration in %: 1 carboxy N-N-N trimethylmethanaminium, %” value [3] was 68%. For the same molecule, the “Concentration in %: Benzoic acid, %” value [3] was 41%, the “%, Dissociation of 1 carboxy N-N-N trimethylmethanaminium” value (pH 1.2 (0.1N HCl), Initial) was 97% and the “%, Dissociation of Benzoic acid” value (pH 1.2 (0.1N HCl), Initial) was 94%. For the same molecule, the “Concentration in %: 1 carboxy N-N-N trimethylmethanaminium, %” value [4] was 67%, the “Concentration in %: Benzoic acid, %” value [4] was 34% and the “%, Dissociation of 1 carboxy N-N-N trimethylmethanaminium” value [5] was 97%. For the same molecule, the “%, Dissociation of Benzoic acid” value [5] was 109%, the “Concentration in %: 1 carboxy N-N-N trimethylmethanaminium, %” value [5] was 70% and the “Concentration in %: Benzoic acid, %” value [5] was 40%. For the same molecule, the “%, Dissociation of 1 carboxy N-N-N trimethylmethanaminium” value [6] was 99%, the “%, Dissociation of Benzoic acid” value [6] was 108% and the “Concentration in %: 1 carboxy N-N-N trimethylmethanaminium, %” value [6] was 71%. The “Concentration in %: Benzoic acid, %” value [6] was 40%, the “%, Dissociation of 1 carboxy N-N-N trimethylmethanaminium” value [7] was 98% and the “%, Dissociation of Benzoic acid” value [7] was 109%. For the same molecule, the “Concentration in %: 1 carboxy N-N-N trimethylmethanaminium, %” value [7] was 71%, the “Concentration in %: Benzoic acid, %” value [7] was 40% and the “%, Dissociation of 1 carboxy N-N-N trimethylmethanaminium” value [8] was 96%. For the same molecule, the “%, Dissociation of Benzoic acid” value [8] was 97%, the “Concentration in %: 1 carboxy N-N-N trimethylmethanaminium, %” value [9] was 69% and the “Concentration in %: Benzoic acid, %” value [9] was 36%.
